The NIST ThermoML archive (doi:10.1016/j.fluid.2014.05.018)
Values joined by “and” are separate entries in the source; they are usually repeats but may differ in a detail not shown here. Identical values can stand only once. ± gives the expanded uncertainty stated by the source.

Details: Liquid, Ebulliometric method (Recirculating still)

| vapor or sublimation pressure (313.2 K) [kPa] | vapor or sublimation pressure (333.2 K) | vapor or sublimation pressure (353.2 K) | vapor or sublimation pressure (373.2 K) | vapor or sublimation pressure (403.2 K) | SMILES |
| --- | --- | --- | --- | --- | --- |
| 18 ± 6 | 50 ± 6 kPa and 47 ± 6 kPa | 110 ± 6 kPa and 108 ± 6 kPa | 225 ± 6 kPa and 224 ± 6 kPa | 585 ± 7 kPa and 572 ± 7 kPa | CCO [ethanol] |
| 536 ± 7 | 880 ± 8 kPa | 1363 ± 10 kPa | 2014 ± 12 kPa | 3377 ± 16 kPa | CC(C)C [2-methylpropane] |
| 379 ± 7 | 645 ± 7 kPa | 1013 ± 8 kPa | 1525 ± 11 kPa | 2660 ± 14 kPa | CCCC [butane] |
